Source: patent US7851436B2, “Inhibition of migration and induction of cell death by the type II collagen amino propeptides” (Washington University, priority 2007, dated 2010)
“Also recorded” adds a separate entry of the source.

Experiments:
[1] = system: mouse chondrogenic cells (ATDC5); experiment: Chondrogenic cell viability (trypan blue exclusion); assay type: cell-based; conditions: 16 hours at 37° C.
Experimental: FIG. 10 depicts a graph showing mouse chondrogenic cells (ATDC5), mouse osteoblast cells, and mouse osteoclast cells treated with recombinant GST, PIIBNP or mPIIBNP proteins for 16 hours at 37° C. The cells were trypsinized and cell viability was assayed using a trypan blue exclusion based cell counting. PPIIBNP induced death in osteoclasts that resorb the bone, but not the osteoblasts that form bone.

HeLa 229 cells = experiment: Cell survival assay in HeLa 229 cells; assay type: cell-based, human
Experimental: Cell Culture. Human Chondrosarcoma cell line (Ch-1) was isolated from a portion of chondrosarcoma tumor. […] HUVEC cells were a gift from Dr. William Frazier (Washington University) and were cultured in M199 Earle's medium with 10 units/ml of penicillin, 5 μg/ml streptomycin and 0.25 μg/ml Fungizone supplemented with 10% FBS, 0.1 mg/ml L-glutamine, 25 mM Hepes, 16 units/ml of heparin (Sigma) and 0.1 mg/ml endothelial cell mitogen (Biochemical Technologies).
(§1) Detection of Cell Death. Cells were cultured to confluence in a 24-well plate pre-coated with type I collagen, fibronectin (Sigma), and ECM Matrigel (Becton Dickinson). Proteins in serum-free medium were added to the cells. Cells were monitored by light microscopy and images were digitally photographed using a Q capture Retiga 2000R camera. Quantification of cells remaining in the well was performed by washing with PBS for three times, fixing with 4% paraformaldehyde. The cells per field (×400) were counted for three field per well (3 wells per measurement). The mean number and standard deviation (SD) were calculated.

Ch-1 cells [2] = experiment: Cell adhesion assay (Ch-1 cells on wells coated with recombinant proteins); assay type: cell-based, human; conditions: wells coated with recombinant protein
Experimental: Cell Adhesion Assay. Cell adhesion assays were performed using a spectrometric method. A 96-well plate was coated at 4° C. overnight with recombinant proteins. Wells were washed three times with RPMI-1640 medium containing 10% FBS. Ch-1 cells were harvested with limited trypsin digestion and plated at 5×10^4 cells per well in RPMI-1640 medium supplemented with 10% FBS for an hours. Proteins were added and incubation continued for 1 hour. The wells were washed three times with pre-warmed PBS to remove non-adherent cells. The adherent cells were fixed with 4% paraformaldehyde in PBS for 10 minutes at room temperature and stained with 0.5% toluidine blue for 5 minutes. The wells were rinsed with water and cells were solubilized with 0.1% SDS. Absorbance at 595 nm was recorded on a SpectraMax plate reader. Synthetic blocking peptides and antibodies to αVβ3 and αVβ5 integrin were pre-incubated with cells for 15 to 30 mins before they were added onto the wells in the inhibition assays.
Cell Culture. Human Chondrosarcoma cell line (Ch-1) was isolated from a portion of chondrosarcoma tumor (Chansky et al., J Orthop Res. (1998) 16(5):521-30). The Ch-1 cell line was maintained in RPMI-1640 supplemented with 10% FBS and at 37° C. in a humidified, 5% CO2 atmosphere.

[3] = system: normal human articular chondrocytes; experiment: Cell survival assay in normal human articular chondrocytes; assay type: cell-based; conditions: high-density monolayers
Experimental: (§2) Cell Culture. Human Chondrosarcoma cell line (Ch-1) was isolated from a portion of chondrosarcoma tumor. The Ch-1 cell line was maintained in RPMI-1640 supplemented with 10% FBS and at 37° C. in a humidified, 5% CO2 atmosphere. Human chondrocytes were obtained from Dr. Davis Adkisson (ISTO Technologies, St. Louis) or isolated from macroscopically intact tissue obtained from total joint arthroplasty as described (Bassleer et al., 1998). HeLa 229 cells and MDA-MB 231 cell lines were provided by Dr. Kathy Weilbaecher (Washington University) and were cultured in RPMI medium supplemented with 10% FBS. HUVEC cells were a gift from Dr. William Frazier (Washington University) and were cultured in M199 Earle's medium with 10 units/ml of penicillin, 5 μg/ml streptomycin and 0.25 μg/ml Fungizone supplemented with 10% FBS, 0.1 mg/ml L-glutamine, 25 mM Hepes, 16 units/ml of heparin (Sigma) and 0.1 mg/ml endothelial cell mitogen (Biochemical Technologies).
as §1, with “Cells were cultured to confluence in a 24-well plate pre-coated with type I collagen, fibronectin (Sigma), and ECM Matrigel (Becton Dickinson). Proteins in serum-free medium were added to the cells.” left out

β1, α4, and α5 integrin = experiment: Cell surface labeling and GST pull-down with immunoblotting (other integrins); assay type: binding, human; conditions: b23: β1 only; b113: β1, α4 and α5
Experimental: Immunoblotting. Western blotting was performed as described (7). Blots were probed with the following primary antibodies: rabbit anti αV, α2, α3, α5, β1, β3, β5 integrin and goat anti actin (Saint Cruz), chicken anti PIIBNP antiserum, and mouse anti exon 2 antiserum.
Cell Surface labeling and GST Pull-down Assay. Ch-1 cells were incubated with EZ-link Sulfo-NHS-Biotin reagent for 30 mins. according to the product instruction (Sigma). After 3 washes with 0.1 M glycine in PBS, the cells were lysed with a lysis buffer described above. The lysate was incubated with glutathione derivatized agarose beads previously bound with GST, PIIANP, PIIBNP or mPIIBNP for 1 hr. at RT. […] The membrane was washed and incubated with antibodies and then incubated with a secondary antibody coupled to horseradish peroxidase. The antibody complex was visualized by enhanced chemiluminescence.

Ch-1 cells [4] = experiment: Internalization of propeptides (immunostaining); assay type: cell-based, human
Description: Ch-1 cells exposed to GST-PIIBNP and GST-PIIANP were immunostained with immunospecific antibodies. […] The internalization of PIIBNP may be exploited to target exogenous agents to cells expressing αVβ3 and αVβ5 integrins.

Ch-1 cells [5] = experiment: Migration of Ch-1 cells; assay type: cell-based, human; conditions: data not shown
Ch-1 cells [6] = experiment: Detection of cell death in Ch-1 cells; assay type: cell-based, human; conditions: 0.8 μM
Experimental: as §2, §1

αV integrin = biological target: T1, αV integrin (Homo sapiens, UniProt P06756); experiment: Integrin αV immunoprecipitation; assay type: binding; conditions: Ch-1 cell lysates
T1 construct: Cell homogenates were then mixed with GST, PIIBNP, or mPIIBNP; endogenous in cells; host or cells: Ch-1 human chondrosarcoma cell lysate
T1 sequence (P06756 31-889 limits assumed): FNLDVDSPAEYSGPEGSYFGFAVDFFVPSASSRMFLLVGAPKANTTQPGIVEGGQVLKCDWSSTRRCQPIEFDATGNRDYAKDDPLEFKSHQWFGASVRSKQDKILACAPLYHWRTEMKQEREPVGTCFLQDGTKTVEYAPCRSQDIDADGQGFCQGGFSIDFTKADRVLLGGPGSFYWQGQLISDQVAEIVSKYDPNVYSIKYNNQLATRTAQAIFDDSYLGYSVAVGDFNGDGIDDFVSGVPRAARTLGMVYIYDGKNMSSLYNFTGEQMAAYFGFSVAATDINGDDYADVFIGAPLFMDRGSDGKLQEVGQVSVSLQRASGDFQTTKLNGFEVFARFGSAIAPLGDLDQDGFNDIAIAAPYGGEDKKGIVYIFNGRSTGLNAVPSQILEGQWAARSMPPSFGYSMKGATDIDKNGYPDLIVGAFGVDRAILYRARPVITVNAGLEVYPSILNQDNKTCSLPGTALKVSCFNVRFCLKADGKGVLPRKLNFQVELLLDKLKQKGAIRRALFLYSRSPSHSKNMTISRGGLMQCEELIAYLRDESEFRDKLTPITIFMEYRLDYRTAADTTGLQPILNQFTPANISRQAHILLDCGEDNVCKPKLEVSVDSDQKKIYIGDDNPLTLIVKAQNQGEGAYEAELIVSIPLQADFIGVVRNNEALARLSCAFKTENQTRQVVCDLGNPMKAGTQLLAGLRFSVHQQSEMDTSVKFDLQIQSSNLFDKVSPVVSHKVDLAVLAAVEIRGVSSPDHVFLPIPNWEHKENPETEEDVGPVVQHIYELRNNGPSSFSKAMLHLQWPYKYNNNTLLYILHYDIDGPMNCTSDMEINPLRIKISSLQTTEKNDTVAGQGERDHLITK
T1 sequence (P06756 891-1048 limits assumed): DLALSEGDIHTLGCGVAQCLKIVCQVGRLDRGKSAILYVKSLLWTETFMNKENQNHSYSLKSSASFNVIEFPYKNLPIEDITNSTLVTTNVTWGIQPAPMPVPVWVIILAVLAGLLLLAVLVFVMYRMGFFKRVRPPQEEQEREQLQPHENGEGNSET
Experimental: Integrin αV Immunoprecipitation. Ch-1 cells were lysed in lysis buffer (50 mM Hepes-KOH [pH 7.4]; 150 mM NaCl; 1% Triton X-100; 10% glycerol; 1 mM EGTA; 1 mM EDTA; 10 mM sodium pyrophosphate; 100 mM sodium fluoride; 0.2 mM sodium orthovanadate; supplemented with the proteinase inhibitors cocktail (Sigma) overnight at 4° C. Cell homogenates were then mixed with GST, PIIBNP, or mPIIBNP and incubated for 1 hours at room temperature. Protein A agarose (Sigma) previously bound with integrin αV antibody was incubated with cell homogenate mixture for 4 h at 4° C. with gentle shaking. After washing (5 mins.×3), the precipitated material was analyzed by SDS-PAGE and detected with chicken anti PIIBNP antibody.

Substance: PIIBNP: Recombinant human Type IIB procollagen NH2-propeptide (exons 3-8, lacking exon 2), expressed as GST fusion protein
- induction of ATDC5 cell death [1]: did not lead to the mouse chondrogenic cell (ATDC5) death
- cell death (HeLa 229 cells; HeLa 229 cells, FIG. 4M): > 80%
- survival (HeLa 229 cells; HeLa cells): 20%
- adhesion to Ch-1 cells (Ch-1 cells [2]): shown to adhere
- adhesion to Ch-1 cells (Ch-1 cells [2]; listed as GST-PIIBNP): strong binding
- induction of cell death in normal chondrocytes [3]: did not induce cell death
- reaction of integrin antibodies with material pulled out by PIIBNP (β1, α4, and α5 integrin): did not react
- internalization into cells (Ch-1 cells [4]): is internalized
- colocalization with actin filaments (Ch-1 cells [4]; 30 minutes of exposure): colocalized with actin filaments
- localization to the nucleus (Ch-1 cells [4]; 2 hours of exposure): localized to the nucleus; also recorded: colocalized with the nucleus
- inhibition of migration of Ch-1 cells (Ch-1 cells [5]): can inhibit migration
- cell survival (Ch-1 cells [6]): 20-30%
- induction of cell death in Ch-1 cells (Ch-1 cells [6]; serum free medium, 24 hrs, type I collagen, fibronectin or Matrigel coated plates): resulted in cell death in a concentration and time-dependent manner; also recorded: induced cell death
- immunoprecipitation with αV integrin specific antibody (αV integrin): immunoprecipitated
